Source: patent US12077503B2, “Substituted cyclic amides and their use as herbicides” (FMC CORPORATION, priority 2015, dated 2024)

Tests used:
Type in all cases: in vivo
[1] = system: barnyardgrass (Echinochloa crus-galli); assay: Test G Pre-Emergence Protocol; settings: Echinochloa crus-galli, pre-emergence, 312 h, evaluated after 13 days
Procedure, shortened: (§1)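 Herbicidal effect was rated 13 days post-application on a scale where 100 equals total damage. Spraying took place the day after sowing, using 15.625, 62.5 or 250 g/ha of compound in a 50:50 acetone/water solution with 0.5% Tween 20.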

corn (Zea mays) [2] = assay: Test G Pre-Emergence Protocol; settings: Zea mays, pre-emergence, 312 h, evaluated after 13 days
Procedure, shortened: as §1

[3] = system: giant foxtail (Setaria faberi); assay: Test G Pre-Emergence Protocol; settings: Setaria faberi, pre-emergence, 312 h, evaluated after 13 days
Procedure, shortened: as §1

[4] = system: ivy-leaved morning glory (Ipomoea hederacea); assay: Test G Pre-Emergence Protocol; settings: Ipomoea, pre-emergence, 312 h, evaluated after 13 days
Procedure, shortened: as §1

[5] = system: redroot pigweed (Amaranthus retroflexus); assay: Test G Pre-Emergence Protocol; settings: Amaranthus retroflexus, pre-emergence, 312 h, evaluated after 13 days
Procedure, shortened: as §1

[6] = system: velvetleaf (Abutilon theophrasti); assay: Test G Pre-Emergence Protocol; settings: Abutilon theophrasti, pre-emergence, 312 h, evaluated after 13 days
Procedure, shortened: as §1

[7] = system: barnyardgrass (Echinochloa crus-galli); assay: Test G Post-Emergence Protocol; settings: Echinochloa crus-galli, post-emergence, 312 h
Procedure, shortened: (§2)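 Pot-grown seedlings, 8 days old, raised in a glasshouse at 24/16 °C day/night with 14 h light and 65% humidity, were sprayed post-emergence with test compound in acetone/water (50:50) plus 0.5% Tween 20 at 15.625, 62.5 or 250 g/ha. Damage was scored visually 13 days later on a 0–100 scale (100 = total damage).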

corn (Zea mays) [8] = assay: Test G Post-Emergence Protocol; settings: Zea mays, post-emergence, 312 h
Procedure, shortened: as §2

[9] = system: giant foxtail (Setaria faberi); assay: Test G Post-Emergence Protocol; settings: Setaria faberi, post-emergence, 312 h
Procedure, shortened: as §2

[10] = system: ivy-leaved morning glory (Ipomoea hederacea); assay: Test G Post-Emergence Protocol; settings: Ipomoea, post-emergence, 312 h
Procedure, shortened: as §2

[11] = system: redroot pigweed (Amaranthus retroflexus); assay: Test G Post-Emergence Protocol; settings: Amaranthus retroflexus, post-emergence, 312 h
Procedure, shortened: as §2

[12] = system: velvetleaf (Abutilon theophrasti); assay: Test G Post-Emergence Protocol; settings: Abutilon theophrasti, post-emergence, 312 h
Procedure, shortened: as §2

With Cc1ccc([C@@H]2CN(C)C(=O)[C@H]2C(=O)Nc2cccc(F)c2F)cc1Cl (racemic) [Compound 1475] the pest or weed control at 15.625 g/ha ([1]; 15.625 g ai/ha, read-out: Barnyard grass damage rating (100=total damage to plant; 0=no damage to plant)) was 10%, the pest or weed control at 62.5 g/ha ([1]; 62.5 g ai/ha, 100=total damage to plant, 0=no damage to plant, read-out: plant damage rating, Barnyardgrass) was 70% and the pest or weed control at 250 g/ha ([1]; 250 g ai/ha, read-out: Barnyardgrass damage rating (100=total damage to plant; 0=no damage to plant)) was 80%. The plant injury at 15.625 g/ha (corn (Zea mays) [2]; 15.625 g ai/ha, read-out: Corn damage rating (100=total damage to plant; 0=no damage to plant)) was 0%, the plant injury at 62.5 g/ha (corn (Zea mays) [2]; 62.5 g ai/ha, 100=total damage to plant, 0=no damage to plant, read-out: plant damage rating, Corn) was 30% and the plant injury at 250 g/ha (corn (Zea mays) [2]; 250 g ai/ha, read-out: Corn damage rating (100=total damage to plant; 0=no damage to plant)) was 50%. It also gave a pest or weed control at 15.625 g/ha ([3]; 15.625 g ai/ha, read-out: Foxtail, Giant damage rating (100=total damage to plant; 0=no damage to plant)) of 70%, a pest or weed control at 62.5 g/ha ([3]; 62.5 g ai/ha, 100=total damage to plant, 0=no damage to plant, read-out: plant damage rating, Foxtail, Giant) of 80% and a pest or weed control at 250 g/ha ([3]; 250 g ai/ha, read-out: Foxtail, Giant damage rating (100=total damage to plant; 0=no damage to plant)) of 90%. The pest or weed control at 15.625 g/ha ([4]; 15.625 g ai/ha, read-out: Morning-glory, Ivy-leaved damage rating (100=total damage to plant; 0=no damage to plant)) was 0%, the pest or weed control at 62.5 g/ha ([4]; 62.5 g ai/ha, 100=total damage to plant, 0=no damage to plant, read-out: plant damage rating, Morningglory, Ivy-leaved) was 0% and the pest or weed control at 250 g/ha ([4]; 250 g ai/ha, read-out: Morningglory, Ivy-leaved damage rating (100=total damage to plant; 0=no damage to plant)) was 10%. For the same compound, the pest or weed control at 15.625 g/ha ([5]; 15.625 g ai/ha, read-out: Pigweed, Redroot damage rating (100=total damage to plant; 0=no damage to plant)) was 0%, the pest or weed control at 62.5 g/ha ([5]; 62.5 g ai/ha, 100=total damage to plant, 0=no damage to plant, read-out: plant damage rating, Pigweed, Redroot) was 0% and the pest or weed control at 250 g/ha ([5]; 250 g ai/ha, read-out: Pigweed, Redroot damage rating (100=total damage to plant; 0=no damage to plant)) was 0%. It also gave a pest or weed control at 15.625 g/ha ([6]; 15.625 g ai/ha, read-out: Velvetleaf damage rating (100=total damage to plant; 0=no damage to plant)) of 0%, a pest or weed control at 62.5 g/ha ([6]; 62.5 g ai/ha, 100=total damage to plant, 0=no damage to plant, read-out: plant damage rating, Velvetleaf) of 0% and a pest or weed control at 250 g/ha ([6]; 250 g ai/ha, read-out: Velvetleaf damage rating (100=total damage to plant; 0=no damage to plant)) of 0%. The pest or weed control at 15.625 g/ha ([7]; 15.625 g ai/ha, evaluated after 13 days (100=total damage to plant; 0=no damage to plant), read-out: Barnyardgrass damage rating) was 30%, the pest or weed control at 62.5 g/ha ([7]; 62.5 g ai/ha, evaluated after 13 days, read-out: Barnyardgrass damage rating (100=total damage to plant; 0=no damage to plant)) was 60% and the pest or weed control at 250 g/ha ([7]; 250 g ai/ha, evaluated after 13 days, read-out: damage to plant, Barnyardgrass (100=total damage to plant; 0=no damage to plant)) was 50%. For the same compound, the plant injury at 15.625 g/ha (corn (Zea mays) [8]; 15.625 g ai/ha, evaluated after 13 days (100=total damage to plant; 0=no damage to plant), read-out: Corn damage rating) was 30%, the plant injury at 62.5 g/ha (corn (Zea mays) [8]; 62.5 g ai/ha, evaluated after 13 days, read-out: Corn damage rating (100=total damage to plant; 0=no damage to plant)) was 40% and the plant injury at 250 g/ha (corn (Zea mays) [8]; 250 g ai/ha, evaluated after 13 days, read-out: damage to plant, Corn (100=total damage to plant; 0=no damage to plant)) was 70%. The pest or weed control at 15.625 g/ha ([9]; 15.625 g ai/ha, evaluated after 13 days (100=total damage to plant; 0=no damage to plant), read-out: Foxtail, Giant damage rating) was 70%, the pest or weed control at 62.5 g/ha ([9]; 62.5 g ai/ha, evaluated after 13 days, read-out: Foxtail, Giant damage rating (100=total damage to plant; 0=no damage to plant)) was 70% and the pest or weed control at 250 g/ha ([9]; 250 g ai/ha, evaluated after 13 days, read-out: damage to plant, Foxtail, Giant (100=total damage to plant; 0=no damage to plant)) was 70%. The pest or weed control at 15.625 g/ha ([10]; 15.625 g ai/ha, evaluated after 13 days (100=total damage to plant; 0=no damage to plant), read-out: Morningglory, Ivy-leaved damage rating) was 20%, the pest or weed control at 62.5 g/ha ([10]; 62.5 g ai/ha, evaluated after 13 days, read-out: Morningglory, Ivy-leaved damage rating (100=total damage to plant; 0=no damage to plant)) was 0% and the pest or weed control at 250 g/ha ([10]; 250 g ai/ha, evaluated after 13 days, read-out: damage to plant, Morningglory, Ivy-leaved (100=total damage to plant; 0=no damage to plant)) was 70%. The pest or weed control at 15.625 g/ha ([11]; 15.625 g ai/ha, evaluated after 13 days (100=total damage to plant; 0=no damage to plant), read-out: Pigweed, Redroot damage rating) was 10%, the pest or weed control at 62.5 g/ha ([11]; 62.5 g ai/ha, evaluated after 13 days, read-out: Pigweed, Redroot damage rating (100=total damage to plant; 0=no damage to plant)) was 30% and the pest or weed control at 250 g/ha ([11]; 250 g ai/ha, evaluated after 13 days, read-out: damage to plant, Pigweed, Redroot (100=total damage to plant; 0=no damage to plant)) was 50%. The pest or weed control at 15.625 g/ha ([12]; 15.625 g ai/ha, evaluated after 13 days (100=total damage to plant; 0=no damage to plant), read-out: Velvetleaf damage rating) was 10%, the pest or weed control at 62.5 g/ha ([12]; 62.5 g ai/ha, evaluated after 13 days, read-out: Velvetleaf damage rating (100=total damage to plant; 0=no damage to plant)) was 10% and the pest or weed control at 250 g/ha ([12]; 250 g ai/ha, evaluated after 13 days, read-out: damage to plant, Velvetleaf (100=total damage to plant; 0=no damage to plant)) was 10%.
